Assay results: ChEMBL document CHEMBL1140418, “Synthesis of (2R,3S) 3-amino-4-mercapto-2-butanol, a threonine analogue for covalent inhibition of sortases” (Bioorg Med Chem Lett, 2005)
Active and inactive are the calls of the source. No cut-off for these calls is given here.

What was measured:
[1] = target: T1, Sortase B (Staphylococcus aureus) (UniProt Q2FZE3); test: Inhibitory activity against Sortase B
T1 sequence (whole entry): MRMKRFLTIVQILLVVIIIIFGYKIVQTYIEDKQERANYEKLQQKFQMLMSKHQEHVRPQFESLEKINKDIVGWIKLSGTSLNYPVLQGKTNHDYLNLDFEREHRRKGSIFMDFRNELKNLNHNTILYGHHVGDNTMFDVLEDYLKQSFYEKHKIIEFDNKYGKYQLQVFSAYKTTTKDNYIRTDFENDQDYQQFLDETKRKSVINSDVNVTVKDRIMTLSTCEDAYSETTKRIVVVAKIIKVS

[2] = target: T2, Sortase A (Staphylococcus aureus) (UniProt Q9S446); test: Inhibitory activity against Sortase A
T2 sequence (whole entry): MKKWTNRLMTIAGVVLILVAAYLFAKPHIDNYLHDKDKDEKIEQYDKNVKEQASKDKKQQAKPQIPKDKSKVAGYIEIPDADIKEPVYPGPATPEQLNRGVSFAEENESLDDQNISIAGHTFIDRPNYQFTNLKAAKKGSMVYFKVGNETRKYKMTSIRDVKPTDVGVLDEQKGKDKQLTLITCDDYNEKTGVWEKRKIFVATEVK

Row | Activity [1] | Activity [2] | SMILES
1 | Active | – | C[C@@H](O)[C@@H](CS)NC(=O)[C@H](CCC(N)=O)NC(=O)[C@@H]1CCCN1C(=O)[C@H](CC(N)=O)NC(=O)OCc1ccccc1
2 | – | Active | CC(C)C[C@H](NC(=O)OCc1ccccc1)C(=O)N1CCC[C@H]1C(=O)N[C@@H](C)C(=O)N[C@H](CS)[C@@H](C)O
